# Columns and labels:
# Assay in all cases: Kinome-wide profiling
# Assay type in all cases: biochemical
# Details in all cases: read-out: % Residual Activity (mean)
# MRCKa/CDC42BPA = MRCKa/CDC42BPA (Homo sapiens (Human), UniProt Q5VT25)
# PKA = PKA (Homo sapiens (Human), UniProt P17612)
# HIPK4 = HIPK4 (Homo sapiens (Human), UniProt Q8NE63)
# CAMK1b = CAMK1b (Homo sapiens (Human), UniProt Q6P2M8)
# DAPK2 = DAPK2 (Homo sapiens (Human), UniProt Q9UIK4)
# TBK1 = TBK1 (Homo sapiens (Human), UniProt Q9UHD2)
# CAMK4 = CAMK4 (Homo sapiens (Human), UniProt Q16566)
# CAMK4, sequence (Q16566 whole entry): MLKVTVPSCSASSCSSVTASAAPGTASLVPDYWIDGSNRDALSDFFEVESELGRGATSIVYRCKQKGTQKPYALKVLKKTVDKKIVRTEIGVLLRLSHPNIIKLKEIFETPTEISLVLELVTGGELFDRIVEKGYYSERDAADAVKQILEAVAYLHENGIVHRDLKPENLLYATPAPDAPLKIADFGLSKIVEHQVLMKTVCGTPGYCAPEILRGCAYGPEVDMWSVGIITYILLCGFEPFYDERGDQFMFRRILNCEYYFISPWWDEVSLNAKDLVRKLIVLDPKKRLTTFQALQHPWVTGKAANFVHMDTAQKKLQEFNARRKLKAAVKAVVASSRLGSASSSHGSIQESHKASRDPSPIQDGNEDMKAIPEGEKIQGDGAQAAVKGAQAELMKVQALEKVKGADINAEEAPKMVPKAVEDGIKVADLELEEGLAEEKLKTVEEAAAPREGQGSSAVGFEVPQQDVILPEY
# GRK5 = GRK5 (Homo sapiens (Human), UniProt P34947)
# MLCK2/MYLK2 = MLCK2/MYLK2 (Homo sapiens (Human), UniProt Q9H1R3)
# c-MET = c-MET (Homo sapiens (Human), UniProt P08581)
# NIM1 = NIM1 (Homo sapiens (Human), UniProt Q8IY84)
# EPHA7 = EPHA7 (Homo sapiens (Human), UniProt Q15375)
# CDK3/cyclin E = CDK3/cyclin E (Homo sapiens (Human), UniProt Q00526)
# SRMS = SRMS (Homo sapiens (Human), UniProt Q9H3Y6)
# PBK/TOPK = PBK/TOPK (Homo sapiens (Human), UniProt Q96KB5)
# FRK/PTK5 = FRK/PTK5 (Homo sapiens (Human), UniProt P42685)
# CDK6/cyclin D2 = CDK6/cyclin D2 (Homo sapiens (Human), UniProt Q00534)
# PKCepsilon = PKCepsilon (Homo sapiens (Human), UniProt Q02156)
# PKD2/PRKD2 = PKD2/PRKD2 (Homo sapiens (Human), UniProt Q9BZL6)
# PKD2/PRKD2, sequence (Q9BZL6 whole entry): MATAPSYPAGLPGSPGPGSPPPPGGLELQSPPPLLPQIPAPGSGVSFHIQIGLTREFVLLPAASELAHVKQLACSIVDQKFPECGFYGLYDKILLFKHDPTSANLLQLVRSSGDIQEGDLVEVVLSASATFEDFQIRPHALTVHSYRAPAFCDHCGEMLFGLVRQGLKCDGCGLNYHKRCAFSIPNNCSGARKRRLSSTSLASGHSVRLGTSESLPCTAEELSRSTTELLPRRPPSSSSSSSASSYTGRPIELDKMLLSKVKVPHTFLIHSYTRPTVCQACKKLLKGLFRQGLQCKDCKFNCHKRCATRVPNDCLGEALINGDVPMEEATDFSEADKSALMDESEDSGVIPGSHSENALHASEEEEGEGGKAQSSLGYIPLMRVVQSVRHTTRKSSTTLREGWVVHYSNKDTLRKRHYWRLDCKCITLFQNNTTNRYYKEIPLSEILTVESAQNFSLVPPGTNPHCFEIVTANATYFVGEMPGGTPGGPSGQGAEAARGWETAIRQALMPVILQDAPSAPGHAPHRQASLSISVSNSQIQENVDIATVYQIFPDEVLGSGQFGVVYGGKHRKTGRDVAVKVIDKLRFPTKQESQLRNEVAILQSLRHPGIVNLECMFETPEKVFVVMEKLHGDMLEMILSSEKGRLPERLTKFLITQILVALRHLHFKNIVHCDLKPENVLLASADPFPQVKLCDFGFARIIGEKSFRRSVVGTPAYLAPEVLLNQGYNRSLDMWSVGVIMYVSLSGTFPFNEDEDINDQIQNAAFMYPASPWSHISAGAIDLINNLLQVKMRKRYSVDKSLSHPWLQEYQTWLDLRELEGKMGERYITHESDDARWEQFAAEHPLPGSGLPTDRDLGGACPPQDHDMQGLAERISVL
# PKG2/PRKG2 = PKG2/PRKG2 (Homo sapiens (Human), UniProt Q13237)
# PKN2/PRK2 = PKN2/PRK2 (Homo sapiens (Human), UniProt Q16513)
# PKN2/PRK2, sequence (Q16513 whole entry): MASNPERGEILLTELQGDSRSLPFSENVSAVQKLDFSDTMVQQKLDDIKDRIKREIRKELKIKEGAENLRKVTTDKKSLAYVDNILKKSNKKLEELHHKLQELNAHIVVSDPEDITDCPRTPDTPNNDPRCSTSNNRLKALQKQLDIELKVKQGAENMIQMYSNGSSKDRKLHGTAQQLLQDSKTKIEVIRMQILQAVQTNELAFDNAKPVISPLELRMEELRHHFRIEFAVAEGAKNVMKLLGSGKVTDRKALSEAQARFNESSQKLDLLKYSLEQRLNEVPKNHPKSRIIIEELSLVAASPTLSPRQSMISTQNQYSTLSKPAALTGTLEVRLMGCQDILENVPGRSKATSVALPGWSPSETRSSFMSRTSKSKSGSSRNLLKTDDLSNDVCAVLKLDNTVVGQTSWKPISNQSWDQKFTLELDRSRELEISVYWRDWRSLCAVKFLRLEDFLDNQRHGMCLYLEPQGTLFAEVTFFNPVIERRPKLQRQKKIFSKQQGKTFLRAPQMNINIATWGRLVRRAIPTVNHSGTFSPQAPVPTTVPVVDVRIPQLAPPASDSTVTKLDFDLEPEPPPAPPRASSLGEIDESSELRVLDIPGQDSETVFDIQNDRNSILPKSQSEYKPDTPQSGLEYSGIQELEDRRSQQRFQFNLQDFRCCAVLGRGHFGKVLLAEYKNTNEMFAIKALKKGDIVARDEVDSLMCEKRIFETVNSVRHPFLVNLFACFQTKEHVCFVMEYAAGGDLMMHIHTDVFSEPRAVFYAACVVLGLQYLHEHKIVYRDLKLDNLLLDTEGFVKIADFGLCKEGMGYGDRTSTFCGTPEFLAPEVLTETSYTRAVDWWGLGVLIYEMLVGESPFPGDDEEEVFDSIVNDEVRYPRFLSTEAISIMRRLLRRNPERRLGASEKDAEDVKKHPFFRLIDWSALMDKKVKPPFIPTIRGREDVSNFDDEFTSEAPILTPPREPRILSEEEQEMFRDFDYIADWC
# WNK3 = WNK3 (Homo sapiens (Human), UniProt Q9BYP7)
# LCK2/ICK = LCK2/ICK (Homo sapiens (Human), UniProt Q9UPZ9)
# LCK2/ICK, sequence (Q9UPZ9 whole entry): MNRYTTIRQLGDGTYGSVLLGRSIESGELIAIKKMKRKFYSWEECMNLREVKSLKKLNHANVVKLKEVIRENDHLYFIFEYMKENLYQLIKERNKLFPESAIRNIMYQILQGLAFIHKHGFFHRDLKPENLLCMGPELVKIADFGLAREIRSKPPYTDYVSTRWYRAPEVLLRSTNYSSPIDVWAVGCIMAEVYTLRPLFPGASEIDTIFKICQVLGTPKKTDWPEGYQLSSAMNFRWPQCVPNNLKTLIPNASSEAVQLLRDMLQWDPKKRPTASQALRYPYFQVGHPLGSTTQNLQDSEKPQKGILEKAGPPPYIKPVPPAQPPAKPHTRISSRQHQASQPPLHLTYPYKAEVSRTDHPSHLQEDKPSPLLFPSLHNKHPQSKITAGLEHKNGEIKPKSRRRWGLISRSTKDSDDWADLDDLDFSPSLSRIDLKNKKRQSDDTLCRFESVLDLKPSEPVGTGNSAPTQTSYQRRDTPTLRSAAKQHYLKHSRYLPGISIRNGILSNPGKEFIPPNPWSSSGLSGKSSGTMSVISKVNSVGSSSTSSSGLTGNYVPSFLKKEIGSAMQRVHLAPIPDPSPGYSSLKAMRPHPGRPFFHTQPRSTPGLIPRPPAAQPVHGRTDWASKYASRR
# ALK = ALK (Homo sapiens (Human), UniProt Q9UM73)
# CDK2/cyclin A1 = CDK2/cyclin A1 (Homo sapiens (Human), UniProt P24941)
# CK2a = CK2a (Homo sapiens (Human), UniProt P68400)
# MLK1/MAP3K9 = MLK1/MAP3K9 (Homo sapiens (Human), UniProt P80192)
# CHK2 = CHK2 (Homo sapiens (Human), UniProt O96017)
# CHK2, sequence (O96017 whole entry): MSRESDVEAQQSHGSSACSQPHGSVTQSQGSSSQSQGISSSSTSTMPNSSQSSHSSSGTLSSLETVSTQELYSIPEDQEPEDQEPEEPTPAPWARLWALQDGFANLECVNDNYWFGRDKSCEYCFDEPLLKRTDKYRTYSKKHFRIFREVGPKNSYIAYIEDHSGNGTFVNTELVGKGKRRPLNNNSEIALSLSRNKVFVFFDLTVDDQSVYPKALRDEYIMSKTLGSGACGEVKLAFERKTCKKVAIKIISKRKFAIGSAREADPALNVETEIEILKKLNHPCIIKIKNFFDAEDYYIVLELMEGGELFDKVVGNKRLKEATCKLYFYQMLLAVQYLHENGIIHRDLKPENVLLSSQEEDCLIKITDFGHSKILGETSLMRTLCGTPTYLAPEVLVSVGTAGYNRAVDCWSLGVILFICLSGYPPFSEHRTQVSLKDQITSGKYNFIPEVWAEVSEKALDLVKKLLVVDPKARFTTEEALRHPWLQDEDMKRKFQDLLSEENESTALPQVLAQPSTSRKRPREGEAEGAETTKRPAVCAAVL
# SGK3/SGKL = SGK3/SGKL (Homo sapiens (Human), UniProt Q96BR1)
# CDK4/cyclin D1 = CDK4/cyclin D1 (Homo sapiens (Human), UniProt P11802)
# TESK2 = TESK2 (Homo sapiens (Human), UniProt Q96S53)
# ROS/ROS1 = ROS/ROS1 (Homo sapiens (Human), UniProt P08922)
# FLT1/VEGFR1 = FLT1/VEGFR1 (Homo sapiens (Human), UniProt P17948)
# c-Src = c-Src (Homo sapiens (Human), UniProt P12931)
# CDK14/cyclin Y (PFTK1) = CDK14/cyclin Y (PFTK1) (Homo sapiens (Human), UniProt O94921)
# CDK2/cyclin E2 = CDK2/cyclin E2 (Homo sapiens (Human), UniProt P24941)
# FER = FER (Homo sapiens (Human), UniProt P16591)
# NEK11 = NEK11 (Homo sapiens (Human), UniProt Q8NG66)
# NEK11, sequence (Q8NG66 whole entry): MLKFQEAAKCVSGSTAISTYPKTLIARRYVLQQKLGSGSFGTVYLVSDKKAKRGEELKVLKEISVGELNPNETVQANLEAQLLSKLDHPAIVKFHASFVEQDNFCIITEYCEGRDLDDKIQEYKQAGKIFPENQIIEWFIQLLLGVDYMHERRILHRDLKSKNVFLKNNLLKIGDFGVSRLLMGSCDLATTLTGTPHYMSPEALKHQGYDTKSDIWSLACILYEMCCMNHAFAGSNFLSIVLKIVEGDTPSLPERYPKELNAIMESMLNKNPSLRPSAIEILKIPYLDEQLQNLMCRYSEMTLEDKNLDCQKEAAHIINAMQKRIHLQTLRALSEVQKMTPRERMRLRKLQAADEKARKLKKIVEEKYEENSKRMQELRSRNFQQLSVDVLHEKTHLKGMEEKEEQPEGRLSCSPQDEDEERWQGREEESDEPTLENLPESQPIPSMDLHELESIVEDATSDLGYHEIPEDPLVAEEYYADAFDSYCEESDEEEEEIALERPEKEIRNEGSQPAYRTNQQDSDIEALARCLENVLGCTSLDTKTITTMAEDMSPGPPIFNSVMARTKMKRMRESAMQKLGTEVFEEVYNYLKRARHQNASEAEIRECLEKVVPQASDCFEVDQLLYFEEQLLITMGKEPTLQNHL
# CLK3 = CLK3 (Homo sapiens (Human), UniProt P49761)
# HIPK4, sequence (Q8NE63 whole entry): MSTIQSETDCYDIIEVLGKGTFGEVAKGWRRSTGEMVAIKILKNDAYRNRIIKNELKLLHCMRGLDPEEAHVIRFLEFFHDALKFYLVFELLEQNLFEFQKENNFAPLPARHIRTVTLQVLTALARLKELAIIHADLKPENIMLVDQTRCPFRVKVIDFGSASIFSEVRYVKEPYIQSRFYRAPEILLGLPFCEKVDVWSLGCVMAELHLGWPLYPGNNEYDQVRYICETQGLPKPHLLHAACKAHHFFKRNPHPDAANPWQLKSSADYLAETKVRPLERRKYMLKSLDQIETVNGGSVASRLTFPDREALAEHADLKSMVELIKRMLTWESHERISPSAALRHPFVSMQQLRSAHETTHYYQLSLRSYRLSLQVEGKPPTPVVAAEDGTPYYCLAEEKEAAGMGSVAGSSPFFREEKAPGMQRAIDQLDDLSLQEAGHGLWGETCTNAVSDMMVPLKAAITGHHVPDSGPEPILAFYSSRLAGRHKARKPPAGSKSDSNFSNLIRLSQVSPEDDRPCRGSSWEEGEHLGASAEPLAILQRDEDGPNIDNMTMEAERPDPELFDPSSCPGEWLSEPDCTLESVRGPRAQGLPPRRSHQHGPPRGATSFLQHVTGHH
smiles,measurement,setting,value
"CCn1cnc2c(NCc3ccc(-c4ccccn4)nc3)nc(-c3ccc(N)nc3)nc21 [Example 53, N-([2,2′-bipyridin]-5-ylmethyl)-2-(6-aminopyridin-3-yl)-9-ethyl-9H-purin-6-amine]",remaining activity at 10 µM,MRCKa/CDC42BPA,96.6%
same,remaining activity at 10 µM,PKA,93.1%
same,remaining activity at 10 µM,HIPK4,43.9%
same,remaining activity at 10 µM,CAMK1b,66.8%
same,remaining activity at 10 µM,DAPK2,85.7%
same,remaining activity at 10 µM,TBK1,55%
same,remaining activity at 10 µM,CAMK4,95.2%
same,remaining activity at 10 µM,GRK5,91.5%
same,remaining activity at 10 µM,MLCK2/MYLK2,60%
same,remaining activity at 10 µM,c-MET,96.4%
same,remaining activity at 10 µM,NIM1,76%
same,remaining activity at 10 µM,EPHA7,31.3%
same,remaining activity at 10 µM,CDK3/cyclin E,0.99%
same,remaining activity at 10 µM,SRMS,96.8%
same,remaining activity at 10 µM,PBK/TOPK,93.5%
same,remaining activity at 10 µM,FRK/PTK5,43.5%
same,remaining activity at 10 µM,CDK6/cyclin D2,51.5%
same,remaining activity at 10 µM,PKCepsilon,94.1%
same,remaining activity at 10 µM,PKD2/PRKD2,72.3%
same,remaining activity at 10 µM,PKG2/PRKG2,99.5%
same,remaining activity at 10 µM,PKN2/PRK2,85.8%
same,remaining activity at 10 µM,WNK3,74.5%
same,remaining activity at 10 µM,LCK2/ICK,39.6%
same,remaining activity at 10 µM,ALK,59.7%
same,remaining activity at 10 µM,CDK2/cyclin A1,0.16%
same,remaining activity at 10 µM,CK2a,84.2%
same,remaining activity at 10 µM,MLK1/MAP3K9,27.9%
same,remaining activity at 10 µM,CHK2,7.39%
same,remaining activity at 10 µM,SGK3/SGKL,92.6%
same,remaining activity at 10 µM,CDK4/cyclin D1,33.5%
same,remaining activity at 10 µM,TESK2,83.7%
same,remaining activity at 10 µM,ROS/ROS1,27.8%
same,remaining activity at 10 µM,FLT1/VEGFR1,36.3%
same,remaining activity at 10 µM,c-Src,60.1%
same,remaining activity at 10 µM,CDK14/cyclin Y (PFTK1),14%
same,remaining activity at 10 µM,CDK2/cyclin E2,9.78%
same,remaining activity at 10 µM,FER,52.3%
same,remaining activity at 10 µM,NEK11,94.2%
same,remaining activity at 10 µM,CLK3,94.6%
